According to paper PMC11741111, “Diversification of Lipopeptide Analogues Drives Versatility in Biological Activities” (Journal of Agricultural and Food Chemistry, 2025):

How the values were obtained:
[1] = test system: B. cinerea; assay: Antifungal activity assay (fungal growth, OD600); format: cell-based, Botrytis cinerea; conditions: 24 h, 25 °C
Description: B. cinerea spores were harvested from sporulated plates with distilled water and filtered through a […] pore membrane to avoid mycelial contamination. 96-well plates containing 100 μL of PDB with 100 spores per well were used, and the corresponding analog concentrations were analyzed for antifungal activity. H2O2 (10 mM) was used as a positive control to induce fungal death. For this experiment, methanol concentrations used for lipopeptide treatment ranged from 2 to 6% for iturins, 0.08 to 0.5% for fengycins and 0.2 to 4% for surfactins. The highest methanol concentration used for each condition was added to the control. The plates were incubated for 24 h with agitation (150 rpm) at 25 °C. After incubation, the OD600 values of the inoculated plates were measured in a plate reader (FLUOstar Omega reader, BMG LabTech) to evaluate fungal growth within the treatments.

[2] = test system: B. velezensis UMAF6639; assay: Lipopeptide analog bacterial toxicity (growth dynamics, OD600); format: cell-based, Bacillus velezensis; conditions: LB, 28 °C, read every 20 min, triplicate; for toxicity to B. velezensis UMAF6639 (OD600 over 24 h), surfactin variants at the mixture concentration: each analog at 65.83 µM; for toxicity to B. velezensis UMAF6639 (OD600 over 24 h), surfactin variants at the mixture concentration / effect on B. velezensis UMAF6639 growth (OD600 over 24 h), surfactins at physiological concentration: Figure 6K-O; for effect on B. velezensis UMAF6639 growth (OD600 over 24 h), surfactins at physiological concentration: mix 65.83 µM, C12 3.67, C13 16.93, C14 20.49, C15 21.85, C16 4.11 µM; for effect on B. velezensis UMAF6639 growth (OD600 over 24 h), iturin variants at the higher (mixture) concentration: each analog at 7.35 µM; for effect on B. velezensis UMAF6639 growth (OD600 over 24 h), iturin variants at the higher (mixture) concentration / effect on B. velezensis UMAF6639 growth (OD600 over 24 h), iturins at physiological concentration: Figure 6A-E; for effect on B. velezensis UMAF6639 growth (OD600 over 24 h), iturins at physiological concentration: mix 7.35 µM, C13 1.27, C14 2.39, C15 0.76, C16 1.96, C17 0.93 µM
Description: To analyze the toxicity of the lipopeptide variants toward B. velezensis UMAF6639, the wells of 96-well plates with 200 μL of LB medium were inoculated with 5 μL of a bacterial suspension (OD600 = 1), and every analog was added at the desired concentration.
Methanol concentrations used for lipopeptide treatment in each condition ranged from 0.005 to 4.3%, and the maximum was used as a control to confirm that was not harmful for Bacillus growth. OD600 values were measured in a plate reader (FLUOstar Omega reader, BMG LabTech) in kinetic mode with temperature control (28 °C), with measurements taken every 20 min.

[3] = test system: B. velezensis UMAF6639; assay: Bacterial counts (CFU) of treated cultures; format: cell-based, Bacillus velezensis; conditions: analogue at its physiological concentration, sampled 14 h after treatment; compared with methanol control; Figure 7A
[4] = test system: Fusarium oxysporum f. sp. radicis-lycopersici; conditions: antagonizing Fusarium oxysporum f. sp. radicis-lycopersici; cited from earlier work
Description: In another recent study, plipastatins, fengycin analogues produced by B. subtilis, were reported to interact with oil bodies (OBs) of the melon seed endosperm, accelerating lipid mobilization and resulting in plant growth promotion (PGP) and immunization.[12] […] Because fengycin B variants have the same fatty acid length, the amino acid at position 6 of the peptide moiety, which differs between fengycin A and B,[46] is important for t ...

[5] = test system: Melon seeds (Rochet Panal - Fitó); assay: Promotion of radicle growth evaluation in melon seeds; format: in vivo; conditions: seeds bathed 1 h, 5 d at 25 °C in the dark; each analog at mixture concentration (7.35 µM); Figure 5A bottom
Description: Melon seeds (Rochet Panal - Fitó) were surface sterilized with 0.1% sodium hypochlorite and washed twice with distilled water. Seed treatment with the purified variants was performed by bathing the seeds for 1 h at room temperature. The analog concentrations were set to the physiological concentrations obtained from previous calibrations. In addition, a second concentration was assayed as if each analog was the only one produced to reach the same concentration as that of the mixture of each lipopeptide family (Table S3). Since each lipopeptide fraction was reconstituted in methanol, water-treated seeds with the highest concentration of methanol used for lipopeptide treatment were used as control. The methanol concentration ranged from 0.004 to 0.025% for iturins, 0.009 to 0.067% for fengycins and 0.018 to 0.050% for surfactins. The seeds were placed in Petri dishes with moist filter paper and maintained in growth chambers at 25 °C for 5 d under dark conditions. The radicle growth-promoting effects were analyzed on the basis of the radicle areas measured 5 days after seed treatment using Fiji software.[28]

**Q.** With “Glu-Leu/Ile-Leu-Val-Asp-Leu-Leu/Ile (lariat or depsi) [C12-surfactin, surfactin analogue with C12 fatty acid, surfactin Fraction A]” as the substance, how does the “antifungal activity (fungal growth, OD600), surfactins at physiological concentration” value ([1]; B. cinerea, PDB, mix 65.83 µM, C12 3.67, C13 16.93, C14 20.49, C15 21.85, C16 4.11 µM (Table S3), Figure 4C left) read?
**A.** Its value is “no significant antifungal activity at physiological concentrations, except for the C12 analog”.

**Q.** And the “toxicity to B. velezensis UMAF6639 (OD600 over 24 h), surfactin variants at the mixture concentration” value [2]?
**A.** Its value is “most toxic”.

**Q.** What does the source list for “Glu-Leu/Ile-Leu-Val-Asp-Leu-Leu/Ile (lariat or depsi) [C13-surfactin, surfactin analogue with C13 fatty acid, surfactin Fraction B]”?
**A.** effect on B. velezensis UMAF6639 growth (OD600 over 24 h), surfactins at physiological concentration [2]: considerable increase in the OD values; bacterial counts (CFU) of B. velezensis UMAF6639 cultures [3]: increased bacterial counts

**Q.** For “Glu-Leu/Ile-Leu-Val-Asp-Leu-Leu/Ile (lariat or depsi) [C15-surfactin, surfactin analogue with C15 fatty acid, surfactin Fractions E, F and G]”, which “effect on B. velezensis UMAF6639 growth (OD600 over 24 h), surfactins at physiological concentration” value [2] is on record?
**A.** Its value is “delayed bacterial growth”.

**Q.** With “Glu-Leu/Ile-Leu-Val-Asp-Leu-Leu/Ile (lariat or depsi) [C16-surfactin, surfactin analogue with C16 fatty acid, surfactin Fraction H]” as the substance, how does the “antifungal activity (fungal growth, OD600), surfactin variants at increased concentration” value ([1]; each analog at mixture concentration (65.83 µM), B. cinerea, PDB, Figure 4C right) read?
**A.** Its value is “comparable to that of the positive control”.

**Q.** What about the “toxicity to B. velezensis UMAF6639 (OD600 over 24 h), surfactin variants at the mixture concentration” value [2] of the same substance?
**A.** The value was “most toxic”.

**Q.** What about the “effect on B. velezensis UMAF6639 growth (OD600 over 24 h), surfactins at physiological concentration” value [2] of the same substance?
**A.** The value was “delayed bacterial growth”.

**Q.** With “Glu-Orn-Tyr-Thr-Glu-Ala/Val-Pro-Gln-Thr-Ile (lariat or depsi) [C14-fengycin B, fengycin B variant with C14 fatty acid, fengycin Fraction B]” as the substance, how does the “antifungal activity (fungal growth, OD600), fengycin variants at the highest concentration tested” value ([1]; each fraction at mixture concentration (25.60 µM), B. cinerea, PDB, Figure 4B right) read?
**A.** Its value is “weak antifungal activity”.

**Q.** What about the “effect on B. velezensis UMAF6639 growth (OD600 over 24 h), fengycin fractions at the highest (mixture) concentration” value ([2]; each fraction at 25.60 µM, Figure 6F-J) of the same substance?
**A.** Its value is “more pronounced”.

**Q.** And the “effect on B. velezensis UMAF6639 growth (OD600 over 24 h), fengycins at physiological (lower) concentration” value ([2]; mix 25.60 µM, fractions B 3.96, C 5.44, D 2.50, E 11.21, F 2.22 µM, Figure 6F-J)?
**A.** The value was “slightly delayed growth”.

**Q.** Which minimal inhibitory concentration [4] does the source give for “Glu-Orn-Tyr-Thr-Glu-Ala/Val-Pro-Gln-Thr-Ile (lariat or depsi) [fengycin A, fengycin variant with Ala at position 6; literature MIC comparison]” here?
**A.** The minimal inhibitory concentration was “notably greater than that of fengycin B”.

**Q.** What does the source list for “Ser-Asn-Pro-Gln-Asn-Tyr-Asn (head to tail) [C13-iturin A, iturin A analogue with C13 fatty acid chain, iturin Fraction A, purified from B. velezensis UMAF6639]”?
**A.** melon seed radicle growth promotion (radicle area), iturin variants at the same concentration [5]: compromised root development; effect on B. velezensis UMAF6639 growth (OD600 over 24 h), iturin variants at the higher (mixture) concentration [2]: harmless to Bacillus cells; effect on B. velezensis UMAF6639 growth (OD600 over 24 h), iturins at physiological concentration [2]: harmless to Bacillus cells

**Q.** What does the source list for “Ser-Asn-Pro-Gln-Asn-Tyr-Asn (head to tail) [C14-iturin A, iturin A analogue with C14 fatty acid chain, iturin Fraction B, purified from B. velezensis UMAF6639]”?
**A.** melon seed radicle growth promotion (radicle area), iturin variants at the same concentration [5]: compromised root development; effect on B. velezensis UMAF6639 growth (OD600 over 24 h), iturin variants at the higher (mixture) concentration [2]: bacterial growth was slightly delayed; effect on B. velezensis UMAF6639 growth (OD600 over 24 h), iturins at physiological concentration [2]: no difference from the control

**Q.** Which “antifungal activity (fungal growth, OD600), iturins at physiological concentration” value ([1]; B. cinerea 100 spores/well in PDB, 150 rpm, mix 7.35 µM, C13 1.27, C14 2.39, C15 0.76, C16 1.96, C17 0.93 µM (Table S3), Figure 4A left) does the source give for “Ser-Asn-Pro-Gln-Asn-Tyr-Asn (head to tail) [C15-iturin A, iturin A analogue with C15 fatty acid chain, iturin Fraction C, purified from B. velezensis UMAF6639]” here?
**A.** Its value is “failed to exhibit antifungal activity”.

**Q.** What about the “antifungal activity (fungal growth, OD600), iturin variants at the concentration of the entire mixture” value ([1]; each variant at 7.35 μM, B. cinerea, PDB, Figure 4A right) of the same substance?
**A.** The value was “sole active analog”.

**Q.** What about the “melon seed radicle growth promotion (radicle area), iturin variants at the same concentration” value [5] of the same substance?
**A.** The value was “significantly promoted radicle growth”.

**Q.** And the “effect on B. velezensis UMAF6639 growth (OD600 over 24 h), iturin variants at the higher (mixture) concentration” value [2]?
**A.** The value was “decrease in the optical density, the values remained above those of the untreated control”.

**Q.** What about the “effect on B. velezensis UMAF6639 growth (OD600 over 24 h), iturins at physiological concentration” value [2] of the same substance?
**A.** The value was “considerable increase in the OD600 value”.

**Q.** What about the “bacterial counts (CFU) of B. velezensis UMAF6639 cultures” value [3] of the same substance?
**A.** Its value is “increased bacterial counts”.

**Q.** For “Ser-Asn-Pro-Gln-Asn-Tyr-Asn (head to tail) [C16-iturin A, iturin A analogue with C16 fatty acid chain, iturin Fraction D, purified from B. velezensis UMAF6639]”, which “melon seed radicle growth promotion (radicle area), iturin variants at the same concentration” value [5] is on record?
**A.** The value was “significantly promoted radicle growth”.

**Q.** And the “effect on B. velezensis UMAF6639 growth (OD600 over 24 h), iturin variants at the higher (mixture) concentration” value [2]?
**A.** Its value is “bacterial growth was slightly delayed”.

**Q.** What about the “effect on B. velezensis UMAF6639 growth (OD600 over 24 h), iturins at physiological concentration” value [2] of the same substance?
**A.** Its value is “no difference from the control”.

**Q.** What does the source list for “Ser-Asn-Pro-Gln-Asn-Tyr-Asn (head to tail) [C17-iturin A, iturin A analogue with C17 fatty acid chain, iturin Fraction E, purified from B. velezensis UMAF6639]”?
**A.** melon seed radicle growth promotion (radicle area), iturin variants at the same concentration [5]: slightly reduced the root area; effect on B. velezensis UMAF6639 growth (OD600 over 24 h), iturin variants at the higher (mixture) concentration [2]: completely arrested B. velezensis growth
